Measured values reported in US20130316963A1, “INNATE DEFENCE REGULATORY PEPTIDE COMPOSITIONS FOR TREATMENT OF ARTHRITIS” (UNIVERSITY OF MANITOBA, priority 2010, published 2013).

Assays:
Type in all cases: cell-based
human FLS cells [1] = test: Cellular cytotoxicity by release of lactate dehydrogenase (LDH); details: presence and absence of cytokine stimulation, 24 hr; IDR-1002 100 μg/ml, IDR-1 200 μg/ml; data not shown
Method: Synovial tissues were obtained from patients with OA in accordance to a protocol by the Institutional Review Board at the University of Manitoba. FLS cells were isolated from the synovial tissues following the procedure taught by Kammouni et al. (2007, Regulation of apoptosis in fibroblast-like synoviocytes by the hypoxia-induced Bcl-2 family member Bcl-2/adenovirus E1B 19-kd protein-interacting protein 3. Arthritis Rheum. 56:2854-2863). […] Cellular cytotoxicity was evaluated by monitoring the release of lactate dehydrogenase (LDH) employing a colorimetric detection kit (Roche Diagnostics, Laval, QC, Canada).
Inflammatory cytokines TNF-α and IL-1β stimulate cells types such as FLS, chondrocytes and macrophages resulting in the production of MMP-3 in arthritic joints. […] In this study we evaluated the impact of IDR peptides on TNF-α and IL-1β-induced MMP-3 production. […] The peptides were not cytotoxic to the FLS cells in the presence and absence of cytokine stimulation, as determined by monitoring the tissue culture supernatants for the release of LDH after 24 hr of stimulation (data not shown). Tissue culture supernatants were monitored after 24 hr of stimulation for MMP-3 production by ELISA. […]

human FLS cells [2] = test: MMP-3 production in tissue culture supernatants of cytokine-stimulated human FLS cells (ELISA); details: 24 hr
Method: Synovial tissues were obtained from patients with OA in accordance to a protocol by the Institutional Review Board at the University of Manitoba. FLS cells were isolated from the synovial tissues following the procedure taught by Kammouni et al. (2007, Regulation of apoptosis in fibroblast-like synoviocytes by the hypoxia-induced Bcl-2 family member Bcl-2/adenovirus E1B 19-kd protein-interacting protein 3. Arthritis Rheum. 56:2854-2863). Briefly, the tissues were digested with 1 mg/ml collagenase and 0.05 mg/ml hyaluronidase (both obtained from Sigma-Aldrich Co., Oakville, ON, Canada) in Hanks' balanced salt solution (Gibco; Invitrogen Canada Inc., Burlington, ON, Canada) for 1-2 hours at 37° C. Cells were washed and cultured in DMEM media (Gibco) supplemented with sodium pyruvate and non-essential amino acids (referred to as complete DMEM media henceforth), containing 10% (v/v) fetal bovine serum (FBS) in a humidified incubator at 37° C. and 10% CO2. Isolated human FLS cells (ex-vivo) were seeded at 2×10^4 cells/ml, either 0.5 ml per well in 48-well tissue culture plate, or 3 ml per well in 6-well tissue culture plate as required and cultured in complete DMEM media containing 10% (v/v) FBS overnight. The following day the culture media was changed to complete DMEM containing 1% (v/v) FBS before the addition of the various stimulants. The FLS cells were not used beyond passage five. […] Cellular cytotoxicity was evaluated by monitoring the release of lactate dehydrogenase (LDH) employing a colorimetric detection kit (Roche Diagnostics, Laval, QC, Canada).
Tissue culture supernatants were harvested after stimulation of human FLS cells with various cytokines (as indicated) with and without IDR peptides after 24 hr. […] Production of MMP-3 in the tissue culture supernatants was monitored using Quantikine® human MMP-3 (total) ELISA kit (Quantikine is a registered trademark of R&D Systems, Inc. Minneapolis, Minn., USA) as per the manufacturer's instructions. Production of pro-inflammatory cytokines IL-1β, IL-6, IL-10, TNF, IL-12p70 and chemokines IL-8, RANTES, MIG, MCP-1, IP-10 in the tissue culture supernatants was determined using preconfigured multiplex BD Cytometric Bead Array (CBA) human inflammation and chemokine kits respectively, employing the FACS Calibur flow cytometer (BD Biosciences, Mississauga, ON, Canada) as per the manufacture's instructions. The concentration of the cytokines or chemokines in the tissue culture supernatants was evaluated by establishing a standard curve with serial dilutions of the recombinant human cytokines or chemokines as required. […]

human FLS cells [3] = test: IL-6 production in human FLS cells stimulated with TGF-β (ELISA); details: FIG. 4
Method: Tissue culture supernatants were harvested from human FLS cells after stimulation for 24 hr with TGF-β with and without IDR-1002. The supernatants were centrifuged at 1500×g for 7 min to obtain cell-free samples. The samples were aliquoted and stored at −20° C. until further use. Production of IL-6 in the tissue culture supernatants was monitored using Quantikine® human […] ELISA following the manufacturer's instructions. […] FLS cells stimulated with TGF-β produced more than 500 pg/ml of IL-6. […] Results shown are an average of at least three independent biological experiments performed with cells isolated from synovial tissues obtained from independent donors±standard error (*p<0.05, **p<0.01).

human FLS cells [4] = test: Transcriptional responses for IL-IRA and SIGIRR in human FLS cells (quantitative real-time PCR); details: FIG. 6; for IL-IRA transcription / SIGIRR transcription: in comparison to IL-1β alone, 2 hrs
Method: Additionally, transcriptional responses for IL-IRA and SIGIRR in these cell cultures were evaluated by quantitative real-time PCR after 2 hrs.

## VQRWLIVWRIRK (IDR-1002 peptide)
Human FLS cells [1]
  cytotoxicity to FLS cells (release of LDH): not cytotoxic
Human FLS cells [2]; IDR-1002 100 μg/ml for 45 min prior to IL-1β 10 ng/ml, FIG. 2A
  suppression of IL-1β-induced MMP-3: 80%
Human FLS cells [2]; IL-1β 10 ng/ml, peptide added at time of stimulation, IDR-1002 100 μg/ml, IDR-1 200 μg/ml, FIG. 1A
  suppression of IL-1β-induced MMP-3 production: 70±8%
Human FLS cells [2]; TNF-α+IL-1β 10 ng/ml each, IDR-1002 100 μg/ml, FIG. 1C
  suppression of MMP-3 production induced by cytomix (TNF-α+IL-1β): 56±10%
Human FLS cells [2]; no cytokine, vs un-stimulated control FLS cells, IDR-1002 100 μg/ml
  MMP-3 production induced by peptide by itself: did not induce MMP-3 production above the background amount
Human FLS cells [3]; TGF-β with IDR-1002, 24 hr
  reduction in TGF-β-induced IL-6 production: more than 50%
Human FLS cells [3]; no TGF-β, 24 hr
  IL-6 production by IDR-1002 alone: did not stimulate production of IL-6
Human FLS cells [4]; IDR-1002 alone
  IL-IRA transcription: significantly increased
  SIGIRR transcription: significantly increased
Human FLS cells [4]; IDR-1002 plus IL-1β
  IL-IRA transcription: significantly increased
  SIGIRR transcription: significantly increased
Human FLS cells [4]; human FLS
  SIGIRR gene expression induced by IDR-1002 relative to cells stimulated with IL-1β: more than 9 fold
